Where “and” joins values, the source holds several entries; their conditions need not be identical. Equal values may be shown once. Read-outs that look alike come from different tables or passages of the source.

For test [1], the system named is ZIKV-induced caspase 3/7 activity in human astrocytes. Kind of test: Caspase 3/7 activity assay, ZIKV-infected human astrocytes. As to conditions: ZIKV-infected human astrocytes; for IC50: read-out: Caspase 3 (IC50, uM) Astrocyte; for Emax: read-out: Caspase 3 (efficacy, %) Astrocyte. The class given is cell-based. In a few lines:
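Human NPCs, SNB-19 cells or astrocytes seeded 16 h, compound added 30 min before ZIKV, then 6 h infection at 37 °C. Caspase-Glo 3/7 luminescence after 30 min at room temperature, normalized to uninfected cells (0%) and ZIKV-infected cells (100%).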

The subject of test [2] is ZIKV-induced cell death in hNPCs. Kind of test: ATP cell viability assay for ZIKV-induced cell death, hNPCs. The class given is cell-based, human. To be noted: ZIKV-infected hNPCs. Here is the method:
(§1) The reagent was reconstituted and prepared as described by the manufacturer. In order to measure the cell death caused by ZIKV infection, cells were cultured for 16 hours at 37° C. with 5% CO2 in assay plates, followed by the addition of ZIKV solution and incubation at 37° C. with 5% CO2 for 72 hours. ATPlite, the ATP monitoring reagent, was then added to the assay plates and they were incubated for 15 minutes. The resulting luminescence was measured using the ViewLux plate reader (Perkin Elmer). Data were normalized using the wells without cells as a control for 100% cell killing, and cell-containing wells without ZIKV infection were used as full cell viability (0% cell killing).
Human NPCs were seeded onto PDL coated 1536-well assay plates at 250 cells per 3 μl/well and incubated at 37° C. in 5% CO2 for 16 hours. Test compounds dissolved in DMSO were transferred to assay plates at a volume of 23 nl/well by an automated pintool workstation (Wako Automation, San Diego, Calif.). Compounds were incubated with cells for 30 minutes at 37° C. in 5% CO2, immediately followed by the addition of 2 μl/well of ZIKV. Incubation time of compound-treated cells with ZIKV varied based on assay format. Experiments measuring virus-induced caspase 3/7 activity required a 6 hour incubation of ZIKV in the presence compounds at 37° C. in 5% CO2. Following this incubation, 3.5 μl/well of caspase 3/7 reagent mixture was added to assay plates. The plates were incubated for 30 minutes at room temperature, and the resultant luminescence signal was measured using a ViewLux plate reader (Perkin Elmer). Experiments measuring virus-induced cell death required a 72-hour incubation of ZIKV in the presence of compounds at 37° C. in 5% CO2. Following this incubation, 3.5 μl/well of ATP content detection reagent was added to assay plates, incubated for 30 minutes at the room temperature, and the resultant luminescence signal was measured in a ViewLux plate reader.
as §1, with “The ATPlite luminescence assay system assay kit (PerkinElmer) was used to determine cell viability. The reagent” for “The reagent”, “by the manufacture. In order” for “by the manufacturer. In order”, “followed by addition of” for “followed by the addition of”, “plates and incubated for” for “plates and they were incubated for”, “Elmer). Data was normalized using” for “Elmer). Data were normalized using”
Human NPCs were seeded onto PDL coated 1536-well assay plates at 250 cells per 3 μl/well and incubated at 37° C. in 5% CO2 for 16 hours. Test compounds dissolved in DMSO were transferred to assay plates at a volume of 23 nl/well by an automated pintool workstation (Wako Automation, San Diego, Calif.). Compounds were incubated with cells for 30 minutes at 37° C. in 5% CO2, immediately followed by the addition of 2 μl/well of ZIKV. Incubation time of compound-treated cells with ZIKV varied based on assay format. Experiments measuring virus induced caspase 3/7 activity required a 6 hour incubation of ZIKV in the presence compounds at 37° C. in 5% CO2. Following this incubation, 3 μl/well of caspase 3/7 reagent mixture was added to assay plates, incubated for 30 minute at room temperature, and the resultant luminescence signal was measured using a ViewLux plate reader (Perkin Elmer). Experiments measuring the virus induced cell death required a 72 hour incubation of ZIKV in the presence of compounds at 37° C. in 5% CO2. Following this incubation, 3 μl/well of ATP content detection reagent was added to assay plates, incubated for 30 minute at room temperature, and the resultant luminescence signal was measured in a ViewLux plate reader.

A word on the IC50: it is the concentration that inhibits the measured activity by half. Consider `c1ccc2[nH]c(-c3cscn3)nc2c1` [Thiabendazole], for which, in test [1] (Astrocyte), the IC50 came out at 10.3 µM and the Emax is 81%. Further, the “Cell viability (efficacy, %) NPCs” value in test [2] is listed as 0.0%.

Turning to `CC(C(=O)O)c1ccc(C(=O)c2ccccc2)s1` (stereo not drawn) [Tiaprofenic acid], in test [1] (Astrocyte), the IC50 worked out at 6.15 µM and the Emax worked out at 88.2%. In addition, in test [2], the “Cell viability (efficacy, %) NPCs” value is recorded as 0.0%.

As for `COc1cccc(-c2ccc(NC(=O)C3=C(C(=O)O)CCC3)c(F)c2)c1` [Vidofludimus], in test [1] (Astrocyte), the IC50 was 2.91 µM and the Emax was 101%. Further, the “Cell viability (efficacy, %) NPCs” value in test [2] is reported as 0.0%.

Regarding Flurbiprofen axetil, in test [1], the “Caspase 3 (efficacy, %) Astrocyte” value is reported as 65.5% and the IC50 stood at 21.8 µM. In addition, the “Cell viability (efficacy, %) NPCs” value in test [2] was 0.0%.

Regarding Vitamin B12, in test [1], the “Caspase 3 (efficacy, %) Astrocyte” value was 77.1% and 62.7%; the IC50 was 8.69 µM and 6.73 µM. Further, in test [2], the “Cell viability (efficacy, %) NPCs” value stood at 0.0%.

The record behind these values is patent US10940188B2, “Compounds and methods for treatment and prevention of Flavivirus infection” (priority 2016, dated 2021).
